From paper PMC6704710, “Preclinical evaluation of 3D185, a novel potent inhibitor of FGFR1/2/3 and CSF-1R, in FGFR-dependent and macrophage-dominant cancer models” (Journal of Experimental & Clinical Cancer Research : CR, 2019)

Experiments:
Assay in all cases: Eurofins kinase panel
Type in all cases: biochemical
Details in all cases: read-out: Inhibition rate (%)
Txk(h) = target: T1, Txk(h) (Homo sapiens, UniProt P42681)
T1 construct: purchased Eurofins (KinaseProfiler)
T1 sequence (P42681 1-527): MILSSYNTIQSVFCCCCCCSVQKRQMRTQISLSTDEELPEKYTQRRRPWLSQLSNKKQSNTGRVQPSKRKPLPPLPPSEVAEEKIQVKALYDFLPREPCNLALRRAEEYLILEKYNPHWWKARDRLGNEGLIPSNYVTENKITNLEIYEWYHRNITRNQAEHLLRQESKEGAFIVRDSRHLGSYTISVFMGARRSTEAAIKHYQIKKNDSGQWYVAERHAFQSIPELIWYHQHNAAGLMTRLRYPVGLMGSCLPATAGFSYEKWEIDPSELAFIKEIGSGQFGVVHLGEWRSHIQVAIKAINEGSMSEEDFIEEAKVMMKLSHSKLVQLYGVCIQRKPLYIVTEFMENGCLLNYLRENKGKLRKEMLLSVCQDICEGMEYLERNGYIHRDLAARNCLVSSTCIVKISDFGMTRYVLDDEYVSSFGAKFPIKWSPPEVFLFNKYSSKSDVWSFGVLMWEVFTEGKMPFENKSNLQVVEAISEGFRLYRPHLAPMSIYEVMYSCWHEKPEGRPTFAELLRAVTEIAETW

Rsk1(h) = target: T2, Rsk1(h) (Homo sapiens, UniProt Q15418)
T2 construct: purchased Eurofins (KinaseProfiler)

CLK1(h) = target: T3, CLK1(h) (Homo sapiens, UniProt P49759)
T3 construct: purchased Eurofins (KinaseProfiler)

p70S6K(h) = target: T4, p70S6K(h) (Homo sapiens, UniProt P23443)
T4 construct: purchased Eurofins (KinaseProfiler)

DAPK2(h) = target: T5, DAPK2(h) (Homo sapiens, UniProt Q9UIK4)
T5 construct: purchased Eurofins (KinaseProfiler)

EphA3(h) = target: T6, EphA3(h) (Homo sapiens, UniProt P29320)
T6 construct: purchased Eurofins (KinaseProfiler)
T6 sequence (P29320 21-983): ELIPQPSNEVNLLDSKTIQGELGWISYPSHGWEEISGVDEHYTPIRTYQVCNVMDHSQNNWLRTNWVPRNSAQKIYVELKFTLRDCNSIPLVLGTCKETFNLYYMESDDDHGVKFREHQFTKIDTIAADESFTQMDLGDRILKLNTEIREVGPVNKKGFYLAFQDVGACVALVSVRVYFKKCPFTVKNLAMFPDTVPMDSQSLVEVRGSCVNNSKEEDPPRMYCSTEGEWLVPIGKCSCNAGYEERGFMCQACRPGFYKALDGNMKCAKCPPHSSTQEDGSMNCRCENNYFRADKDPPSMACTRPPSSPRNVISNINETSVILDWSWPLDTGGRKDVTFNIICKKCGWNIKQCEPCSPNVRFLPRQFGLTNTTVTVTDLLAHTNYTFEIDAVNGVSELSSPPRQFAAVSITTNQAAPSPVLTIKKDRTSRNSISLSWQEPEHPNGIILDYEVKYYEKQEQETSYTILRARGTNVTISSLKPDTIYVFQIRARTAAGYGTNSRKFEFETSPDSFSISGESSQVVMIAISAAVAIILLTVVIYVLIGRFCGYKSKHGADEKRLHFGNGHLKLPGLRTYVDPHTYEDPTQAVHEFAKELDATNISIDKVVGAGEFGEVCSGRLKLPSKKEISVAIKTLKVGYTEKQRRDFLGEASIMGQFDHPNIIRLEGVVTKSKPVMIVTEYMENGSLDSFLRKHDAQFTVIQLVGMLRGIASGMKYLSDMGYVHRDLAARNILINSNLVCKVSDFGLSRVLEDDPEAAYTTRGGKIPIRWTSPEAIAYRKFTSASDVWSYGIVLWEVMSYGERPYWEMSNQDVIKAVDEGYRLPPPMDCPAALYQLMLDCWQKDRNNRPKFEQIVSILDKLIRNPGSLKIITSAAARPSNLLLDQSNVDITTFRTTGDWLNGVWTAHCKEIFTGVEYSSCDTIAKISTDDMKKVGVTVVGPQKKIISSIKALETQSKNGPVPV

CDK3/cyclinE(h) = target: T7, CDK3/cyclinE(h) (Homo sapiens, UniProt Q00526)
T7 construct: purchased Eurofins (KinaseProfiler)

MARK1(h) = target: T8, MARK1(h) (Homo sapiens, UniProt Q9P0L2)
T8 construct: purchased Eurofins (KinaseProfiler)

[1] = target: T9, PI3 Kinase (p110α/p85α)(h) (Homo sapiens, UniProt P42336)
T9 construct: purchased Eurofins (KinaseProfiler)

CaMKIV(h) = target: T10, CaMKIV(h) (Homo sapiens, UniProt Q16566)
T10 construct: purchased Eurofins (KinaseProfiler)
T10 sequence (Q16566 1-473): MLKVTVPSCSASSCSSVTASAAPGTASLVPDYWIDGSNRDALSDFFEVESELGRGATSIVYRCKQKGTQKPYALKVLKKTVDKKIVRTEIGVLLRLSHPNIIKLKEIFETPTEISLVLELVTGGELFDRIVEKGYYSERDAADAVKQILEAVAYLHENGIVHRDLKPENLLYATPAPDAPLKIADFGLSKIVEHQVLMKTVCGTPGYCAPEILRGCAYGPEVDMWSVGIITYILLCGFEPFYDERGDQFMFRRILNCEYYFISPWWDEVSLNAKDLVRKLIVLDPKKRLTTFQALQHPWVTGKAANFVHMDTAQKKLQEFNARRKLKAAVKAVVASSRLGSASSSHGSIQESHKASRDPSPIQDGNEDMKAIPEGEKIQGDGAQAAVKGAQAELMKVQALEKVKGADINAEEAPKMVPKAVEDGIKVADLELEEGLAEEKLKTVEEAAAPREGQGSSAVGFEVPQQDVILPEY

T4 sequence (P23443 whole entry): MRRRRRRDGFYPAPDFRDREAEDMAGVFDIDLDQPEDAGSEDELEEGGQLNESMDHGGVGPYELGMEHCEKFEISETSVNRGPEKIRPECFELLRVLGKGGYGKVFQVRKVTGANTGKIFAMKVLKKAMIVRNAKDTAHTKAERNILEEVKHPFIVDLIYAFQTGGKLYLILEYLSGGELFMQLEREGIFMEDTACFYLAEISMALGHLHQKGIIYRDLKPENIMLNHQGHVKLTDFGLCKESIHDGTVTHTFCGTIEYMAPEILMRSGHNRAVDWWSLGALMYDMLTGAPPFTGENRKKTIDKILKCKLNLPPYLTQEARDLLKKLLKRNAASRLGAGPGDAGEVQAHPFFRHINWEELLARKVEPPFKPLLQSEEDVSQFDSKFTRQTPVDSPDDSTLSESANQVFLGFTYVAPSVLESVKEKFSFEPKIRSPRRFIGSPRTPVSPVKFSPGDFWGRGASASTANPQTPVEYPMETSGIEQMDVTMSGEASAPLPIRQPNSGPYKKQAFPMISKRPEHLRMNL
T8 sequence (Q9P0L2 whole entry): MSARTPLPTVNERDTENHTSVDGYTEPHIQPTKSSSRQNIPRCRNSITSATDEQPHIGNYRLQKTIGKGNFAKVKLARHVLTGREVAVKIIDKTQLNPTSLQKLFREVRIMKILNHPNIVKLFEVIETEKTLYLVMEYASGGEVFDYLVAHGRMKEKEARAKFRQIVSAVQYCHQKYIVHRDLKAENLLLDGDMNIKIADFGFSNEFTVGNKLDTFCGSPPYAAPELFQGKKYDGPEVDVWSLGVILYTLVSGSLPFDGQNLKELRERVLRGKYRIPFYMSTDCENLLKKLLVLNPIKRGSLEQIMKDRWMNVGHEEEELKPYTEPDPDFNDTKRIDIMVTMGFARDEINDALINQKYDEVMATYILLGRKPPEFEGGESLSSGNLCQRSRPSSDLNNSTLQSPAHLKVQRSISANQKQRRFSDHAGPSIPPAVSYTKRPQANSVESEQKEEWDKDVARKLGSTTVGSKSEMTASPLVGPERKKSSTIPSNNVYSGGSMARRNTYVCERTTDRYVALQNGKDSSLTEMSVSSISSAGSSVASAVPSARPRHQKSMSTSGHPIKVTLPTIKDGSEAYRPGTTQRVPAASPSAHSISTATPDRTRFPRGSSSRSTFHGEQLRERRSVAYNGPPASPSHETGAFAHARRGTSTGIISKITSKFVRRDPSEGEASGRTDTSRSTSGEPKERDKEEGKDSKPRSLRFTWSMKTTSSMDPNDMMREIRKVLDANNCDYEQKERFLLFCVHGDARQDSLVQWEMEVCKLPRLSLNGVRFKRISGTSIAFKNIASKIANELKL
T2 sequence (Q15418 whole entry): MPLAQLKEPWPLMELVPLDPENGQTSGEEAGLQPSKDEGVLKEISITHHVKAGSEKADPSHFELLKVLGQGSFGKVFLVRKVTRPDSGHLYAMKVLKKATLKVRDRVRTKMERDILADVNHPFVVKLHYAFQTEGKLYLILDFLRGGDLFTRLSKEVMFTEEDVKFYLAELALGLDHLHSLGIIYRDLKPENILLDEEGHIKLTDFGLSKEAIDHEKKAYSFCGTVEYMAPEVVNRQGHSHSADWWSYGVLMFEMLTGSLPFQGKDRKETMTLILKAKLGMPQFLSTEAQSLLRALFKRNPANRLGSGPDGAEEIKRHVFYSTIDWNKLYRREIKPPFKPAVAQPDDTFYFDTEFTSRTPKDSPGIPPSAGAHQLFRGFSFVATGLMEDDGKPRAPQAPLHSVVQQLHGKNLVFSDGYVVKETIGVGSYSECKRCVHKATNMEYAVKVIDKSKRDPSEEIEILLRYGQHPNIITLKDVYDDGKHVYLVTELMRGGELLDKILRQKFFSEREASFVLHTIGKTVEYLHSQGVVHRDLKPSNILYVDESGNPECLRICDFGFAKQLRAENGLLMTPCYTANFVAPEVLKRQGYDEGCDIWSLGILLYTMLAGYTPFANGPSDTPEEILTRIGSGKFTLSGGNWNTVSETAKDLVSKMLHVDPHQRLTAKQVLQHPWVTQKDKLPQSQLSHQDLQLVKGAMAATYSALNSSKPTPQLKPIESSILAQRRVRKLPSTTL
T3 sequence (P49759 whole entry): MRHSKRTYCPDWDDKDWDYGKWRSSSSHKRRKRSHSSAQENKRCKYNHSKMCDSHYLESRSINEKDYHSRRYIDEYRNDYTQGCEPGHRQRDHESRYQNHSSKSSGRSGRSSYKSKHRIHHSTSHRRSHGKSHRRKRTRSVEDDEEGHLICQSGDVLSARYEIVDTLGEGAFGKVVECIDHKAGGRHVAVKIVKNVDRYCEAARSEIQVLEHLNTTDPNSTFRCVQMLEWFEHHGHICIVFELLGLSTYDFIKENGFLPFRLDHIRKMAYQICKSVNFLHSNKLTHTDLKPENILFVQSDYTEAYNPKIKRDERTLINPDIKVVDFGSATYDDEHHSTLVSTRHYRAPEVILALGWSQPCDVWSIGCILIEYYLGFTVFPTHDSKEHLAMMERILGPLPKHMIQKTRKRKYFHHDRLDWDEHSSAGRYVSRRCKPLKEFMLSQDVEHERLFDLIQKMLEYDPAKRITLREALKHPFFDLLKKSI
T5 sequence (Q9UIK4 whole entry): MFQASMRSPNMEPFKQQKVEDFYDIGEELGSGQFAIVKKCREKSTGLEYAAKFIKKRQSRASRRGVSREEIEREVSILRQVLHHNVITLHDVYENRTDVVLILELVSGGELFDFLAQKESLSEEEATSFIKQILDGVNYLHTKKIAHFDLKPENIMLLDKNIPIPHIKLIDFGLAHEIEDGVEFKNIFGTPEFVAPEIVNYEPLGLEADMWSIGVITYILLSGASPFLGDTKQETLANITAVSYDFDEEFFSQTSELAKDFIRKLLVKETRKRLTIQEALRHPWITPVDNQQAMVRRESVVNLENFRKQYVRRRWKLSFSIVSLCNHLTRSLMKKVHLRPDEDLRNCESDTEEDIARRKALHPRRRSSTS
T9 sequence (P42336 whole entry): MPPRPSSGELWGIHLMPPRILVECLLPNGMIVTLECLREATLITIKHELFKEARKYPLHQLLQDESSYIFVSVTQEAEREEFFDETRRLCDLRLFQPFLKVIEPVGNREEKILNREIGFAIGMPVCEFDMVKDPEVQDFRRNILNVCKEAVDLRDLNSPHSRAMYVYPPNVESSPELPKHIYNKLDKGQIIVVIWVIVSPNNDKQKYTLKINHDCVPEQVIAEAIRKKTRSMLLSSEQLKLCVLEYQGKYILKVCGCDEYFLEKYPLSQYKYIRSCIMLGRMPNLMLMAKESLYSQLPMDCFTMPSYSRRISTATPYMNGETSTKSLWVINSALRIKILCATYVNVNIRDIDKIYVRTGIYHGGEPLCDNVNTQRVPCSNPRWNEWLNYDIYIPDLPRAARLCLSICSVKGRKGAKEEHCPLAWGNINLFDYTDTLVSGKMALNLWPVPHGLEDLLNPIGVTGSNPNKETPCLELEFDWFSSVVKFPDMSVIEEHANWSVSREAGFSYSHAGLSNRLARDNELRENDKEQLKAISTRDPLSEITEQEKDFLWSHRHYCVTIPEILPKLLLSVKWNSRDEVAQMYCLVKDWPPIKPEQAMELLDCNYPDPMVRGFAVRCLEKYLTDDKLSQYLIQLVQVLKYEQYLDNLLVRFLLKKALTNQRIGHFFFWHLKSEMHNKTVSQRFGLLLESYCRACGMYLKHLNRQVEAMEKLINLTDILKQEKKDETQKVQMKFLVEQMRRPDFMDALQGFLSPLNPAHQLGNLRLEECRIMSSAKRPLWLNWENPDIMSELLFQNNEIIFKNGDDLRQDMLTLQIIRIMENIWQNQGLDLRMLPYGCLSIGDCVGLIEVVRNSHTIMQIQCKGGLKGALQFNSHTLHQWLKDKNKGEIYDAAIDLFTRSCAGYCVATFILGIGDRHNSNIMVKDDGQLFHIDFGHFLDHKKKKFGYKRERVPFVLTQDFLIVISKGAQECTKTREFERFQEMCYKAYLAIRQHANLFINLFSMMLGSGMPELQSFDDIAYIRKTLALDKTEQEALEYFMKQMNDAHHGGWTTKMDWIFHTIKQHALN
T9 sequence (P27986 whole entry partner): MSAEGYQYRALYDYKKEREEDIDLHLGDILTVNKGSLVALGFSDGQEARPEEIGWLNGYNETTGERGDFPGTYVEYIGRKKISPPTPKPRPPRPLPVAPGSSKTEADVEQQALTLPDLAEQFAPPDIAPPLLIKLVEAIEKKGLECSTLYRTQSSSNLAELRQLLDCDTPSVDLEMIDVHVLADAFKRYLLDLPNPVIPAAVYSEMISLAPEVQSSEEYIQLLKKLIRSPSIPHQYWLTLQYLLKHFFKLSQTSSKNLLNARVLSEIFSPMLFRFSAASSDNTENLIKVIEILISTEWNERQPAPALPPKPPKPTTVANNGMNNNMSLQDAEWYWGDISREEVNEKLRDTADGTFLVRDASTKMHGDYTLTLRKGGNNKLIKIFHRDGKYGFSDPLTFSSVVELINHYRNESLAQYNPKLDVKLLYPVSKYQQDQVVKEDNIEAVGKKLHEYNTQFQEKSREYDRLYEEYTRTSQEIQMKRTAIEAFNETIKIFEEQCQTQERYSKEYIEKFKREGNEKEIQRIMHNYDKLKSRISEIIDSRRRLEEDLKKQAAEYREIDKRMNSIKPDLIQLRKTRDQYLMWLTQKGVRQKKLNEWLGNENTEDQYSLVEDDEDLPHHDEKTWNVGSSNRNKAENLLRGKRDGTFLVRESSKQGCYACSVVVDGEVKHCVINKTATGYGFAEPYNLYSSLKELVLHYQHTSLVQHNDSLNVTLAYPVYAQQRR

COc1cc(OC)c(Cl)c(-c2ccc3c(NC(=O)c4ccc(N5CCNC(C)(C)C5)cc4)n[nH]c3n2)c1Cl [3D185]
inhibition at 0.01 µM (Txk(h); 10 nM): 18%
inhibition at 0.1 µM (Txk(h); 100 nM): 27%
inhibition at 1 µM (Txk(h); 1000 nM): 49%
inhibition at 0.01 µM (Rsk1(h); 10 nM): -1%
inhibition at 0.1 µM (Rsk1(h); 100 nM): -4%
inhibition at 1 µM (Rsk1(h); 1000 nM): 24%
inhibition at 0.01 µM (CLK1(h); 10 nM): -7%
inhibition at 0.1 µM (CLK1(h); 100 nM): -5%
inhibition at 1 µM (CLK1(h); 1000 nM): 7%
inhibition at 0.01 µM (p70S6K(h); 10 nM): -4%
inhibition at 0.1 µM (p70S6K(h); 100 nM): -9%
inhibition at 1 µM (p70S6K(h); 1000 nM): -1%
inhibition at 0.01 µM (DAPK2(h); 10 nM): 1%
inhibition at 0.1 µM (DAPK2(h); 100 nM): -8%
inhibition at 1 µM (DAPK2(h); 1000 nM): 2%
inhibition at 0.01 µM (EphA3(h); 10 nM): 2%
inhibition at 0.1 µM (EphA3(h); 100 nM): 14%
inhibition at 1 µM (EphA3(h); 1000 nM): 30%
inhibition at 0.01 µM (CDK3/cyclinE(h); 10 nM): 1%
inhibition at 0.1 µM (CDK3/cyclinE(h); 100 nM): -11%
inhibition at 1 µM (CDK3/cyclinE(h); 1000 nM): -19%
inhibition at 0.01 µM (MARK1(h); 10 nM): -11%
inhibition at 0.1 µM (MARK1(h); 100 nM): -13%
inhibition at 1 µM (MARK1(h); 1000 nM): -25%
inhibition at 0.01 µM ([1]; 10 nM): -1%
inhibition at 0.1 µM ([1]; 100 nM): 1%
inhibition at 1 µM ([1]; 1000 nM): 2%
inhibition at 0.01 µM (CaMKIV(h); 10 nM): -6%
inhibition at 0.1 µM (CaMKIV(h); 100 nM): -21%
inhibition at 1 µM (CaMKIV(h); 1000 nM): -22%
